What was measured:
Assay type in all cases: functional
[1] = test system: JAR; experiment: Increase in caspase3/7 production in human JAR cells at 50 uM relative to control
[2] = test system: JAR; experiment: Increase in caspase3/7 production in human JAR cells at 25 uM relative to control
[3] = test system: JAR; experiment: Increase in caspase3/7 production in human JAR cells at 10 uM relative to control

SMILES | Activity [1] | Activity [2] | Activity [3]
C[C@H](c1ccc(Cl)cc1)N1C(=O)c2cc(I)ccc2N(CCCCC(=O)O)C(=O)[C@@H]1c1ccc(Cl)cc1 | 1.97 | 1.37 | 0.97
C[C@H](c1ccc(Cl)cc1N)N1C(=O)c2cc(I)ccc2N(CCN2CCOCC2)C(=O)[C@@H]1c1ccc(Cl)cc1 | 2.89 | 2.87 | 0.9
COCCOCCN1C(=O)[C@H](c2ccc(Cl)cc2)N([C@H](C)c2ccc(Cl)cc2N)C(=O)c2cc(I)ccc21 | 2.92 | 2.84 | 1.29

Reference: ChEMBL document CHEMBL1148515, “Enantiomerically pure 1,4-benzodiazepine-2,5-diones as Hdm2 antagonists” (Bioorg Med Chem Lett, 2006)
